Laboratory results from ChEMBL document CHEMBL1124696, “Nucleoside peptides. 10. Synthesis and T-cell immunostimulatory properties of certain peptide derivatives of 6-azacadeguomycin” (1989).

Legend:
Assay type in all cases: functional
Homo sapiens [1] = organism: Homo sapiens; test: Mitogen-induced human lymphocyte proliferation measured by incorporation of [3H]thymidine in lymphocytes with Pokeweed mitogen at a concentration of 1/2500 ug with compound at 400 uM
Homo sapiens [2] = organism: Homo sapiens; test: Mitogen-induced human lymphocyte proliferation measured by incorporation of [3H]thymidine in lymphocytes with Pokeweed mitogen at a concentration of 1/2500 ug with compound at 50 uM
Homo sapiens [3] = organism: Homo sapiens; test: Mitogen-induced human lymphocyte proliferation measured by incorporation of [3H]thymidine in lymphocytes with Concanavalin A at a concentration of 0.25 ug with compound at 400 uM
Homo sapiens [4] = organism: Homo sapiens; test: Mitogen-induced human lymphocyte proliferation measured by incorporation of [3H]thymidine in lymphocytes with Pokeweed mitogen at a concentration of 1/2500 ug with compound at 10 uM
Homo sapiens [5] = organism: Homo sapiens; test: Mitogen-induced human lymphocyte proliferation measured by incorporation of [3H]-thymidine in lymphocytes with Pokeweed mitogen at a concentration of 1/2500 ug with compound at 1 uM
Homo sapiens [6] = organism: Homo sapiens; test: Mitogen-induced human lymphocyte proliferation measured by incorporation of [3H]-thymidine in lymphocytes with Pokeweed mitogen at a concentration of 1/2500 ug with out compound
Homo sapiens [7] = organism: Homo sapiens; test: Mitogen-induced human lymphocyte proliferation measured by incorporation of [3H]thymidine in lymphocytes with Phytohemagglutininin at a concentration of 0.25 ug with out compound
Homo sapiens [8] = organism: Homo sapiens; test: Mitogen-induced human lymphocyte proliferation measured by incorporation of [3H]thymidine in lymphocytes with Pokeweed mitogen at a concentration of 1/2500 ug with compound at 0.1 uM
Homo sapiens [9] = organism: Homo sapiens; test: Mitogen-induced human lymphocyte proliferation measured by incorporation of [3H]thymidine in lymphocytes with Concanavalin A (Con A) at a concentration of 0.25 ug with compound at 0.1 uM
Homo sapiens [10] = organism: Homo sapiens; test: Mitogen-induced human lymphocyte proliferation measured by incorporation of [3H]thymidine in lymphocytes with Concanavalin A (Con A) at a concentration of 0.25 ug with compound at 10 uM
Homo sapiens [11] = organism: Homo sapiens; test: Mitogen-induced human lymphocyte proliferation measured by incorporation of [3H]thymidine in lymphocytes with Concanavalin A (Con A) at a concentration of 0.25 ug with compound at 50 uM
Homo sapiens [12] = organism: Homo sapiens; test: Mitogen-induced human lymphocyte proliferation measured by incorporation of [3H]thymidine in lymphocytes with Concanavalin A (Con A) at a concentration of 0.25 ug with compound at 1 uM
Homo sapiens [13] = organism: Homo sapiens; test: Mitogen-induced human lymphocyte proliferation measured by incorporation of [3H]thymidine in lymphocytes with Concanavalin A (Con A) at a concentration of 0.25 ug with out compound
Homo sapiens [14] = organism: Homo sapiens; test: Mitogen-induced human lymphocyte proliferation measured by incorporation of [3H]thymidine in lymphocytes with Phytohemagglutininin at a concentration of 0.25 ug with compound at 10 uM
Homo sapiens [15] = organism: Homo sapiens; test: Mitogen-induced human lymphocyte proliferation measured by incorporation of [3H]thymidine in lymphocytes with Phytohemagglutininin at a concentration of 0.25 ug with compound at 1 uM
Homo sapiens [16] = organism: Homo sapiens; test: Mitogen-induced human lymphocyte proliferation measured by incorporation of [3H]thymidine in lymphocytes with Phytohemagglutininin at a concentration of 0.25 ug with compound at 400 uM
Homo sapiens [17] = organism: Homo sapiens; test: Mitogen-induced human lymphocyte proliferation measured by incorporation of [3H]thymidine in lymphocytes with Phytohemagglutininin at a concentration of 0.25 ug with compound at 50 uM
Homo sapiens [18] = organism: Homo sapiens; test: Mitogen-induced human lymphocyte proliferation measured by incorporation of [3H]-thymidine in lymphocytes with Phytohemagglutininin at a concentration of 0.25 ug with compound at 0.1 uM
Homo sapiens [19] = organism: Homo sapiens; test: Mitogen-induced human lymphocyte proliferation measured by incorporation of [3H]thymidine in lymphocytes with Pokeweed mitogen at a concentration of 1/5000 ug with compound at 400 uM
Homo sapiens [20] = organism: Homo sapiens; test: Mitogen-induced human lymphocyte proliferation measured by incorporation of [3H]thymidine in lymphocytes with Pokeweed mitogen at a concentration of 1/5000 ug with compound at 10 uM
Homo sapiens [21] = organism: Homo sapiens; test: Mitogen-induced human lymphocyte proliferation measured by incorporation of [3H]thymidine in lymphocytes with Pokeweed mitogen at a concentration of 1/5000 ug with compound at 1 uM
Homo sapiens [22] = organism: Homo sapiens; test: Mitogen-induced human lymphocyte proliferation measured by incorporation of [3H]thymidine in lymphocytes with Pokeweed mitogen at a concentration of 1/5000 ug with out compound
Homo sapiens [23] = organism: Homo sapiens; test: Mitogen-induced human lymphocyte proliferation measured by incorporation of [3H]thymidine in lymphocytes with Pokeweed mitogen at a concentration of 1/5000 ug with compound at 0.1 uM
Homo sapiens [24] = organism: Homo sapiens; test: Mitogen-induced human lymphocyte proliferation measured by incorporation of [3H]thymidine in lymphocytes with Pokeweed mitogen at a concentration of 1/2500 ug with compound at 1 uM
Homo sapiens [25] = organism: Homo sapiens; test: Mitogen-induced human lymphocyte proliferation measured by incorporation of [3H]thymidine in lymphocytes with Phytohemagglutininin at a concentration of 0.125 ug with out compound
Homo sapiens [26] = organism: Homo sapiens; test: Mitogen-induced human lymphocyte proliferation measured by incorporation of [3H]thymidine in lymphocytes with Phytohemagglutininin at a concentration of 0.125 ug with compound at 50 uM
Homo sapiens [27] = organism: Homo sapiens; test: Mitogen-induced human lymphocyte proliferation measured by incorporation of [3H]thymidine in lymphocytes with Phytohemagglutininin at a concentration of 0.125 ug with compound at 400 uM
Homo sapiens [28] = organism: Homo sapiens; test: Mitogen-induced human lymphocyte proliferation measured by incorporation of [3H]thymidine in lymphocytes with Concanavalin A (Con A) at a concentration of 0.5 ug with compound at 0.1 uM
Homo sapiens [29] = organism: Homo sapiens; test: Mitogen-induced human lymphocyte proliferation measured by incorporation of [3H]thymidine in lymphocytes with Concanavalin A (Con A) at a concentration of 0.5 ug with out compound
Homo sapiens [30] = organism: Homo sapiens; test: Mitogen-induced human lymphocyte proliferation measured by incorporation of [3H]thymidine in lymphocytes with Concanavalin A (Con A) at a concentration of 0.5 ug with compound at 10 uM
Homo sapiens [31] = organism: Homo sapiens; test: Mitogen-induced human lymphocyte proliferation measured by incorporation of [3H]thymidine in lymphocytes with Concanavalin A (Con A) at a concentration of 0.5 ug with compound at 50 uM
Homo sapiens [32] = organism: Homo sapiens; test: Mitogen-induced human lymphocyte proliferation measured by incorporation of [3H]thymidine in lymphocytes with Concanavalin A (Con A) at a concentration of 0.5 ug with compound at 1 uM
Homo sapiens [33] = organism: Homo sapiens; test: Mitogen-induced human lymphocyte proliferation measured by incorporation of [3H]thymidine in lymphocytes with Concanavalin A at a concentration of 0.5 ug with compound at 400 uM
Homo sapiens [34] = organism: Homo sapiens; test: Mitogen-induced human lymphocyte proliferation measured by incorporation of [3H]thymidine in lymphocytes with Phytohemagglutininin at a concentration of 0.125 ug with compound at 0.1 uM
Homo sapiens [35] = organism: Homo sapiens; test: Mitogen-induced human lymphocyte proliferation measured by incorporation of [3H]thymidine in lymphocytes with Phytohemagglutininin at a concentration of 0.125 ug with compound at 1 uM
Homo sapiens [36] = organism: Homo sapiens; test: Mitogen-induced human lymphocyte proliferation measured by incorporation of [3H]thymidine in lymphocytes with Phytohemagglutininin at a concentration of 0.25 ug with compound at 0.1 uM
Homo sapiens [37] = organism: Homo sapiens; test: Mitogen-induced human lymphocyte proliferation measured by incorporation of [3H]thymidine in lymphocytes with Phytohemagglutininin at a concentration of 0.125 ug with compound at 10 uM
Homo sapiens [38] = organism: Homo sapiens; test: Mitogen-induced human lymphocyte proliferation measured by incorporation of [3H]-thymidine in lymphocytes with Pokeweed mitogen at a concentration of 1/5000 ug with compound at 50 uM
Homo sapiens [39] = organism: Homo sapiens; test: Mitogen-induced human lymphocyte proliferation measured by incorporation of [3H]-thymidine in lymphocytes with Phytohemagglutininin at a concentration of 0.125 ug with compound at 50 uM
Homo sapiens [40] = organism: Homo sapiens; test: Mitogen-induced human lymphocyte proliferation measured by incorporation of [3H]thymidine in lymphocytes with Pokeweed mitogen at a concentration of 1/2500 ug with out compound
Homo sapiens [41] = organism: Homo sapiens; test: Mitogen-induced human lymphocyte proliferation measured by incorporation of [3H]thymidine in lymphocytes with Concanavalin A (Con A) at a concentration of 0.25 microg with compound at 10 uM
Homo sapiens [42] = organism: Homo sapiens; test: Mitogen-induced human lymphocyte proliferation measured by incorporation of [3H]thymidine in lymphocytes with Pokeweed mitogen at a concentration of 1/2500 ug with compound at 1 uM.
Homo sapiens [43] = organism: Homo sapiens; test: Mitogen-induced human lymphocyte proliferation measured by incorporation of [3H]thymidine in lymphocytes with Pokeweed mitogen at a concentration of 1/2500 ug without compound
Homo sapiens [44] = organism: Homo sapiens; test: Mitogen-induced human lymphocyte proliferation measured by incorporation of [3H]thymidine in lymphocytes with Phytohemagglutininin at a concentration of 0.125 ug without compound

SMILES | Incorporation (Homo sapiens [1]) | Incorporation (Homo sapiens [2]) | Incorporation (Homo sapiens [3]) | Incorporation (Homo sapiens [4]) | Incorporation (Homo sapiens [6]) | Incorporation (Homo sapiens [8]) | Incorporation (Homo sapiens [9]) | Incorporation (Homo sapiens [11]) | Incorporation (Homo sapiens [12]) | Incorporation (Homo sapiens [13]) | Incorporation (Homo sapiens [14]) | Incorporation (Homo sapiens [15]) | Incorporation (Homo sapiens [16]) | Incorporation (Homo sapiens [17]) | Incorporation (Homo sapiens [24]) | Incorporation (Homo sapiens [25]) | Incorporation (Homo sapiens [27]) | Incorporation (Homo sapiens [34]) | Incorporation (Homo sapiens [35]) | Incorporation (Homo sapiens [37]) | also measured
NC(=O)CC[C@H](NC(=O)c1nn(C2O[C@H](CO)[C@@H](O)[C@H]2O)c2nc(N)[nH]c(=O)c12)C(N)=O (some centres not stated) | 29854 | 44234 | 24167 | 45049 | 40326 | 46067 | 26181 | 28119 | 30068 | 25758 | 48588 | 50331 | 39824 | 43877 | – | – | – | – | – | – | Incorporation (Homo sapiens [5]): 39260; Incorporation (Homo sapiens [7]): 57799; Incorporation (Homo sapiens [10]): 31799; Incorporation (Homo sapiens [18]): 49448
N=C(N)NCCC[C@H](NC(=O)[C@H](Cc1ccccc1)NC(=O)c1nn(C2O[C@H](CO)[C@@H](O)[C@H]2O)c2nc(N)[nH]c(=O)c12)C(N)=O (some centres not stated) | 18394 | 19755 | – | 18784 | 15723 | 17344 | – | – | – | – | 36688 | 46087 | 33862 | 37174 | 18470 | 23120 | 26854 | 22401 | 19743 | 36645 | Incorporation (Homo sapiens [19]): 8214; Incorporation (Homo sapiens [20]): 8734; Incorporation (Homo sapiens [21]): 8437; Incorporation (Homo sapiens [22]): 7043; Incorporation (Homo sapiens [23]): 11906; Incorporation (Homo sapiens [7]): 35768; Incorporation (Homo sapiens [26]): 21841; Incorporation (Homo sapiens [28]): 43850; Incorporation (Homo sapiens [29]): 35226; Incorporation (Homo sapiens [30]): 41908; Incorporation (Homo sapiens [31]): 36977; Incorporation (Homo sapiens [32]): 36088; Incorporation (Homo sapiens [33]): 30792; Incorporation (Homo sapiens [36]): 38673; Incorporation (Homo sapiens [38]): 9960
NC(=O)CNC(=O)c1nn(C2O[C@H](CO)[C@@H](O)[C@H]2O)c2nc(N)[nH]c(=O)c12 (some centres not stated) | 40023 | 39719 | – | 44370 | 39468 | 44670 | – | – | – | – | – | – | – | – | 42288 | 35075 | 66017 | 27956 | 32413 | 47343 | Incorporation (Homo sapiens [39]): 50056; Incorporation (Homo sapiens [28]): 43954; Incorporation (Homo sapiens [29]): 43401; Incorporation (Homo sapiens [30]): 46662; Incorporation (Homo sapiens [31]): 44360; Incorporation (Homo sapiens [32]): 40503; Incorporation (Homo sapiens [33]): 43649
NC(=O)[C@H](Cc1ccccc1)NC(=O)c1nn(C2O[C@H](CO)[C@@H](O)[C@H]2O)c2nc(N)[nH]c(=O)c12 (some centres not stated) | 37204 | 40511 | 30812 | 44634 | – | 39180 | 24317 | 27642 | 26510 | 27326 | – | – | – | – | 41073 | 38473 | 42771 | 26149 | 35042 | 54960 | Incorporation (Homo sapiens [40]): 31047; Incorporation (Homo sapiens [39]): 53121; Incorporation (Homo sapiens [41]): 29989
Nc1nc2c(c(C(=O)O)nn2C2O[C@H](CO)[C@@H](O)[C@H]2O)c(=O)[nH]1 (some centres not stated) | 34537 | 34808 | 22619 | 36867 | – | 35813 | 20186 | 22446 | 21319 | 21143 | 32955 | 28393 | 29655 | 31662 | – | – | – | – | – | – | Incorporation (Homo sapiens [42]): 39189; Incorporation (Homo sapiens [43]): 35867; Incorporation (Homo sapiens [44]): 28436; Incorporation (Homo sapiens [10]): 27385; Incorporation (Homo sapiens [18]): 25106
